From patent US7494998B2, “Benzisoxazole piperazine compounds and methods of use thereof” (Hypnion, Inc., priority 2005, dated 2009)

Assays:
[1] = tested on: male Wistar rats; test: Sleep-wakefulness monitoring (EEG/EMG, SCORE-2004) in rats after oral treatment at CT-18; assay type: in vivo, rat; details: for MAXIMUM NREM SLEEP CUMULATION 3 mg/kg / LONGEST UNINTERRUPTED SLEEP BOUT 3 mg/kg: 3 mg/kg oral at CT-18; for MAXIMUM NREM SLEEP CUMULATION 10 mg/kg / LONGEST UNINTERRUPTED SLEEP BOUT 10 mg/kg: 10 mg/kg oral at CT-18; for MAXIMUM NREM SLEEP CUMULATION 30 mg/kg / LONGEST UNINTERRUPTED SLEEP BOUT 30 mg/kg: 30 mg/kg oral at CT-18
Procedure: Sleep-wakefulness, locomotor activity and body temperature are monitored in male Wistar rats treated with a test compound (i.e., benzisoxazole analog) initially at a concentration of 10 mg/kg. Higher and lower doses are assayed for select compounds (e.g., as high as 45 mg/kg, and as low as necessary to establish a no-effect dose). Treatments are administered at CT-18, the peak of the activity dominated period (6 hours after lights-off), and produced soporific (sleep-inducing) effects characterized by increased non-REM sleep time, increased sleep continuity, but without evidence of REM sleep inhibition or rebound insomnia.
Sleep-wakefulness, locomotor activity and body temperature were monitored in vivo with various compounds of the invention. Adult, male Wistar rats (250 g at time of surgery, Charles River Laboratories, Wilmington Mass.) were anesthetized (2% isoflourane in medical grade oxygen) and surgically prepared with a cranial implant to permit chronic electro-encephalogram (EEG) and electromyogram (EMG) recording. Body temperature and locomotor activity were monitored via a miniature transmitter (Mini-Mitter, Bend, Oreg.) surgically placed in the abdomen. The cranial implant consisted of stainless steel screws (two frontal [+3.2 AP from bregma, ±2.0 ML] and two occipital [−6.9 AP, ±5.5 ML]) for EEG recording. Two Teflon®-coated stainless steel wires were positioned under the nuchal trapezoid muscles for EMG recording. All leads were soldered to a miniature connector prior to surgery, and gas sterilized in ethylene oxide. The implant assembly was affixed to the skull with dental acrylic. A minimum of three weeks was allowed for surgical recovery.
Each rat was permanently housed in its own individual recording cage located within separate, ventilated compartments of custom-designed stainless steel cabinets. Each cage was enhanced with a filter-top riser and low-torque swivel-commutator. Food and water were available ad libitum. A 24-hr light-dark cycle (12 hours light, 12 hours dark) was maintained throughout the study. Animals were undisturbed for at least 48 hours before and after treatments.
Sleep and wakefulness were determined using “SCORE-2004™” (Hypnion, Worcester, Mass.)—an internet-based sleep-wake and physiological monitoring system. The system monitored amplified EEG (bandpass 1-30 Hz), integrated EMG (bandpass 10-100 Hz), body temperature and non-specific locomotor activity (LMA) via telemetry, and drinking activity, continuously and simultaneously. Arousal states were classified on-line as non-REM (NREM) sleep, REM sleep, wake, or theta-dominated wake every 10 seconds. Total drinking and locomotor activity counts, and body temperature were quantitiated and recorded each minute, using EEG feature extraction and pattern-matching algorithms. […] The classification algorithm used individually-taught EEG-arousal-state templates, plus EMG criteria to differentiate REM sleep from theta-dominated wakefulness, plus behavior-dependent contextual rules (e.g., if the animal was drinking, it is awake). Drinking and locomotor activity intensity (LMA) were recorded every 10 seconds, while body temperature was recorded each minute. Locomotor activity was detected by a telemetry receiver (Mini-Mitter) beneath the cage. Telemetry measures (LMA and body temperature) were not part of the scoring algorithm; thus, sleep-scoring and telemetry data were independent measures.
Compounds were administered at CT-18, the peak of the activity-dominated period, sufficient time was allowed to view the time course of the treatment effect before lights-on (6 hours post-treatment). Compounds were suspended in sterile 0.25% or 0.5% methylcellulose (1-2 ml/kg). Treatments were administered orally as a bolus.
A parallel group study design was employed. […]

[2] = target: T1, human recombinant M1 expressed in CHO cells (Homo sapiens, UniProt P11229); details: reference compounds of the M1 assay; read-out: Ki (M1 binding assay, reference compounds); cited from earlier work
T1 construct: expressed in transfected cells; host or cells: CHO cells
T1 sequence (P11229 1-460): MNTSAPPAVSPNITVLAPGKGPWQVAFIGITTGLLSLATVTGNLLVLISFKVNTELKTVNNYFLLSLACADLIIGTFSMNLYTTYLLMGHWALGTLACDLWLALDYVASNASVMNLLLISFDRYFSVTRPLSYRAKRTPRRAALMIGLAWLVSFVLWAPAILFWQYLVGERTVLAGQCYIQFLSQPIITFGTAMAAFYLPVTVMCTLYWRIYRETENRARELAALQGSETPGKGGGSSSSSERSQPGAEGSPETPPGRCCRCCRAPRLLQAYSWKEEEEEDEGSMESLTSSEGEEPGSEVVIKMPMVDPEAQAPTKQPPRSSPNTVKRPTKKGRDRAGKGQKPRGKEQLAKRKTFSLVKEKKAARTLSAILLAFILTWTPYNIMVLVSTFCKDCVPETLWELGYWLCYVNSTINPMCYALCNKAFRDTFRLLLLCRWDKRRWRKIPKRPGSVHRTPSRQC

[3] = cumulative nonREM sleep defined in minutes, in min
[4] = sleep bout length defined in minutes

Structure (SMILES): Cc1ccc2c(N3CCN(CC(C)(C)C(=O)O)CC3)noc2c1 [Compound 9]
- MAXIMUM NREM SLEEP CUMULATION 3 mg/kg [1, 3]: 24
- LONGEST UNINTERRUPTED SLEEP BOUT 3 mg/kg [1, 4]: 13.6
- MAXIMUM NREM SLEEP CUMULATION 10 mg/kg [1, 3]: 29
- LONGEST UNINTERRUPTED SLEEP BOUT 10 mg/kg [1, 4]: 12.9

Structure (SMILES): Cc1ccc2onc(N3CCN(CCC(=O)O)CC3)c2c1 [Compound 12]
- MAXIMUM NREM SLEEP CUMULATION 10 mg/kg [1, 3]: 16
- LONGEST UNINTERRUPTED SLEEP BOUT 10 mg/kg [1, 4]: 7.3

Structure (SMILES): CC(C)(CN1CCN(c2noc3ccc(F)cc23)CC1)C(=O)O [Compound 6]
- MAXIMUM NREM SLEEP CUMULATION 10 mg/kg [1, 3]: 18
- LONGEST UNINTERRUPTED SLEEP BOUT 10 mg/kg [1, 4]: 9.8
- MAXIMUM NREM SLEEP CUMULATION 30 mg/kg [1, 3]: 26
- LONGEST UNINTERRUPTED SLEEP BOUT 30 mg/kg [1, 4]: 13.5

Structure (SMILES): Cc1ccc2onc(N3CCN(CCCC(=O)O)CC3)c2c1 [Compound 13]
- MAXIMUM NREM SLEEP CUMULATION 10 mg/kg [1, 3]: 7
- LONGEST UNINTERRUPTED SLEEP BOUT 10 mg/kg [1, 4]: −5.6

Structure (SMILES): Cc1ccc2onc(N3CCN(CC(C)(C)C(=O)O)CC3)c2c1 [Compound 8]
- MAXIMUM NREM SLEEP CUMULATION 3 mg/kg [1, 3]: 15
- LONGEST UNINTERRUPTED SLEEP BOUT 3 mg/kg [1, 4]: 4.8
- MAXIMUM NREM SLEEP CUMULATION 10 mg/kg [1, 3]: 29
- LONGEST UNINTERRUPTED SLEEP BOUT 10 mg/kg [1, 4]: 8.6
- MAXIMUM NREM SLEEP CUMULATION 30 mg/kg [1, 3]: 37
- LONGEST UNINTERRUPTED SLEEP BOUT 30 mg/kg [1, 4]: 14.3

Structure (SMILES): CC(C)(CN1CCN(c2noc3ccccc23)CC1)C(=O)O [Compound 1]
- MAXIMUM NREM SLEEP CUMULATION 1 mg/kg ([1]; 1 mg/kg oral at CT-18, cumulative nonREM sleep defined in minutes, in min): 20
- LONGEST UNINTERRUPTED SLEEP BOUT 1 mg/kg ([1]; 1 mg/kg oral at CT-18, sleep bout length defined in minutes): 6.0
- MAXIMUM NREM SLEEP CUMULATION 3 mg/kg [1, 3]: 16
- LONGEST UNINTERRUPTED SLEEP BOUT 3 mg/kg [1, 4]: 9.3
- MAXIMUM NREM SLEEP CUMULATION 10 mg/kg [1, 3]: 26
- LONGEST UNINTERRUPTED SLEEP BOUT 10 mg/kg [1, 4]: 14.4
- MAXIMUM NREM SLEEP CUMULATION 30 mg/kg [1, 3]: 50
- LONGEST UNINTERRUPTED SLEEP BOUT 30 mg/kg [1, 4]: 16.2

Structure (SMILES): O=C(O)CCCN1CCN(c2noc3ccccc23)CC1 [Compound 10]
- MAXIMUM NREM SLEEP CUMULATION 10 mg/kg [1, 3]: 22
- LONGEST UNINTERRUPTED SLEEP BOUT 10 mg/kg [1, 4]: 10.7
- MAXIMUM NREM SLEEP CUMULATION 30 mg/kg [1, 3]: 24
- LONGEST UNINTERRUPTED SLEEP BOUT 30 mg/kg [1, 4]: 9.9

Structure (SMILES): CC(C)(CN1CCN(c2noc3ccccc23)CC1)C(=O)NS(C)(=O)=O [Compound 3]
- MAXIMUM NREM SLEEP CUMULATION 10 mg/kg [1, 3]: 25
- LONGEST UNINTERRUPTED SLEEP BOUT 10 mg/kg [1, 4]: 5.2
- MAXIMUM NREM SLEEP CUMULATION 30 mg/kg [1, 3]: 27
- LONGEST UNINTERRUPTED SLEEP BOUT 30 mg/kg [1, 4]: 12.3

Structure (SMILES): COc1ccc2onc(N3CCN(CC(C)(C)C(=O)O)CC3)c2c1 [Compound 7]
- MAXIMUM NREM SLEEP CUMULATION 10 mg/kg [1, 3]: 6
- LONGEST UNINTERRUPTED SLEEP BOUT 10 mg/kg [1, 4]: −2.5

Structure (SMILES): O=C(O)CCN1CCN(c2noc3ccccc23)CC1 [Compound 4]
- MAXIMUM NREM SLEEP CUMULATION 10 mg/kg [1, 3]: 27
- LONGEST UNINTERRUPTED SLEEP BOUT 10 mg/kg [1, 4]: 9.9

Structure (SMILES): O=C(O)C1(CN2CCN(c3noc4ccccc34)CC2)CC1 [Compound 5]
- MAXIMUM NREM SLEEP CUMULATION 3 mg/kg [1, 3]: 40
- LONGEST UNINTERRUPTED SLEEP BOUT 3 mg/kg [1, 4]: 3.0
- MAXIMUM NREM SLEEP CUMULATION 10 mg/kg [1, 3]: 37
- LONGEST UNINTERRUPTED SLEEP BOUT 10 mg/kg [1, 4]: 5.1
- MAXIMUM NREM SLEEP CUMULATION 30 mg/kg [1, 3]: 45
- LONGEST UNINTERRUPTED SLEEP BOUT 30 mg/kg [1, 4]: 7.2

Structure (SMILES): C[N+]1(C)CCC(OC(=O)C(c2ccccc2)c2ccccc2)CC1 [4-DAMP methiodide]
- Ki [2]: 0.27 nM
